“Also recorded” adds a separate entry of the source.
Legend:
[1] = test system: bone resorption; conditions: in vitro experiment, reported in the literature; cited from earlier work
[2] = test system: ovariectomized female SD rats; assay: Amelioration of bone mineral density reduction after removal of ovaries (pQCT, femur), test 4; type: in vivo, rat; conditions: oral 10 ml/kg once a day for 28 days, concentrations equal to those in beer (isoxanthohumol also 5-fold and 20-fold)
Method: Ovaries on both sides of 9-week old female SD rats were removed, and, from the next day of the ovary removal, the test compound was orally administered into the stomach through a stomach tube (liquid amount 10 ml/kg) once a day for 28 days.
(§1) For the control group and sham operation group, the 0.8% aqueous ethanol solution was orally administered in the same manner as in the test compound administration group. 17β-Estradiol was provided as a positive control and was subcutaneously administered at a dose of 4 μg/kg/day.
Beer (domestically produced pilsner beer) contained 2.1 mg/L isoxanthohumol and 43 μg/L 8-prenylnaringenin. Here this beer was once lyophilized and was then dissolved in water to remove ethanol to give a test compound which was then used in the test.
Isoxanthohumol was dissolved in a 0.8% aqueous ethanol solution so that, as compared with the concentration of isoxanthohumol contained in beer, the resultant solutions had 1-fold, 5-fold and 20-fold isoxanthohumol concentrations. […]
The bone mineral density was measured by dissecting the femur of rats and identifying the cancellous bone mineral density at the distal metaphysis bone end with a pQCT (Peripheral Quantitative computed tomography) bone mineral density measuring apparatus (XCT-960A, manufactured by Norland Stratec).

[3] = test system: estrogen-responsive human breast cancer-derived MCF-7 cells; assay: Estrogen activity measured by cell growth of MCF-7 cells (Cell Counting Kit); type: cell-based; conditions: for estrogen activity compared with the activity of estradiol: MCF-7 cell growth, relative to 17β-estradiol; for estrogen activity (cell growth of MCF-7 cells as index): 7 days of culture, absorbance at 450 nm
Method: The estrogen activity of the test compound was measured using as an index cell growth of estrogen-responsive human breast cancer-derived MCF-7 cells. The cell line used is one that expressed an estrogen receptor and enhanced cell growth in the presence of an estrogen-like substance. Therefore, the estrogen activity was measured by measuring the cell growth of the cell line with Cell Counting Kit (manufactured by DOJINDO LABORATORIES).
The measurement of cell growth of MCF-7 cells with the Cell Counting Kit was carried out by measuring the absorbance at 450 nm of formazane produced from a WST-1 reagent ([…], monosodium salt) incorporated in cells with a microplate reader (SOFTmax (manufactured by Molecular Devices Corporation)).
More specifically, MCF-7 cells were precultured for 3 days in a DMEM medium containing 10% of fetal calf serum (manufactured by Gibco), which had been treated using Dextran-Coated Charcoal (manufactured by Sigma) for adsorbing and removing endogenous steroids, and further containing penicillin and streptomycin (each 10000 units, 1 mg/ml, manufactured by Gibco), 0.1 mM nonessential amino acid (manufactured by Gibco), 1 mM sodium pyruvate (manufactured by Gibco), and 1 μg/ml insulin (human recombinant 27.5 USP unit/mg: (manufactured by Sigma)). A cell suspension having an MCF-7 cell concentration of 8×10^4 cells/ml was prepared and was seeded on a 96 well plate in an amount of 100 μl/well. One day after the initiation of the culture, the medium in the wells was replaced by a medium containing a test compound (0.1% (v/v)) dissolved in dimethylsulfoxide, and culture was continued. On the fourth day of the culture, the medium in the wells was again replaced by a fresh medium containing the test compound. On the seventh day of the culture, the cell growth was measured with Cell Counting Kit.
For purified isoxanthohumol and chemically synthesized 8-prenylnaringenin, the estrogen activity was measured in the same manner as in test 1, except that the concentrations of the test compound in the medium for MCF-7 cell culture were set as follows.
Isoxanthohumol was added so that the concentration of isoxanthohumol in the medium was 1.0×10^−5, 1.0×10^−6, 1.0×10^−7, 1.0×10^−8, 1.0×10^−9, and 1.0×10^−10 mol/L.

[4] = test system: young Wistar female rats; assay: In vivo estrogen activity in immature rats (uterine weight), test 3-a; set-up: species or system rat; conditions: oral 1, 5 or 25 mg/kg/day once a day for 3 days
Method: In vivo estrogen activity was evaluated using young Wistar female rats. The rats used were provided as follows. At the outset, 20-day old Wistar female rats (available from Charles River Japan, Inc.) were selected so that the difference in body weight among the animals was within ±10% of the average body weight. Thereafter, the animals were randomly grouped so that each group consisted of 6 animals. The animals were reared with free feeding of water and AlN-76A (manufactured by CLEA JAPAN INC.).
After preliminary rearing for one day, isoxanthohumol or 8-prenylnaringenin was forcibly orally administered into the stomach through a stomach tube at a dose of 1, 5, or 25 mg/kg/day (liquid amount 10 ml/kg) once a day for 3 days. For the control group, a solvent (peanut oil) was orally administered in the same manner as described, and for the positive control, 17β-estradiol was provided and was orally administered at a dose of 400 μg/kg/day in the same manner as described above. About 24 hr after the final administration, the uterine was harvested from the rats, and the weight of the uterine was measured to measure the in vivo estrogen activity.

[5] = test system: ovariectomized female SD rats; assay: In vivo estrogen activity in ovariectomized rats (uterine weight), test 3-b; set-up: species or system rat
Method: Ovaries on both sides of 9-week old female SD rats (available from Charles River Japan, Inc.) were removed, and the rats were randomly grouped so that each group consisted of 6 animals. The animals were reared with free feeding of water and AlN-76A (manufactured by CLEA JAPAN INC.). From the next day of the operation, the test compound was forcibly orally administered into the stomach through a stomach tube (liquid amount 10 ml/kg) once a day for 28 days.
as §1, with “Isoxanthohumol was dissolved in a 0.8% aqueous ethanol solution so that, as compared with the concentration of isoxanthohumol contained in beer, the resultant solutions had 1-fold, 5-fold and 20-fold isoxanthohumol concentrations. For” for “For”, “2” for “4”

| dose without uterine weight increasing activity relative to the dose that exhibited bone mineral density reduction inhibitory activity [5] | Compound | bone resorption inhibitory effect [1] | amelioration of cancellous bone mineral density reduction in the femur [2] | estrogen activity compared with the activity of estradiol [3] | estrogen activity (cell growth of MCF-7 cells as index) [3] | in vivo estrogen activity (uterine weight increasing activity) [4] | in vivo estrogen activity (recovery of uterine weight) ([5]; oral 10 ml/kg once a day for 28 days, 1-fold, 5-fold and 20-fold the concentration in beer) |
| --- | --- | --- | --- | --- | --- | --- | --- |
| – | COc1cc(O)c(CC=C(C)C)c(O)c1C(=O)/C=C/c1ccc(O)cc1 [xanthohumol, reference compound] | proven to have bone resorption inhibitory effect | any activity as in isoxanthohumol was not observed | – | – | – | – |
| – | CC(C)=CCc1c(O)cc(O)c2c1O[C@H](c1ccc(O)cc1)CC2=O [8-prenylnaringenin, reference compound] | – | This amelioration was not observed | 10^−2 time | had estrogen activity | – | – |
| – | Humulons | proven to have bone resorption inhibitory effect | – | – | – | – | – |
| 20 times | COc1cc(O)c(CC=C(C)C)c2c1C(=O)CC(c1ccc(O)cc1)O2 (stereo not drawn) [isoxanthohumol] | – | confirmed to be effective; also recorded: better than the effect of xanthohumol; also recorded: significantly ameliorated; also recorded: significantly improved a bone mineral density reduction | about 10^−5 time | had estrogen activity; also recorded: has estrogen activity | did not have in vivo estrogen activity for immature rats or had only a very low level of activity; also recorded: did not exhibit uterine weight increasing activity; also recorded: uterine hypertrophy action was not observed | significant recovery of the weight of the uterine was not observed; also recorded: did not exhibit uterine weight increasing activity |

From patent US20100105766A1, “COMPOSITION FOR INHIBITION OR PREVENTION OF BONE DENSITY REDUCTION” (Kirin Beer Kabushiki Kaisha, priority 2003, published 2010)
